According to patent publication US7531554B2, “4-oxoquinoline compound and use thereof as HIV integrase inhibitor” (Japan Tobacco Inc., priority 2004, dated 2009):
Structures can show the parent of a compound that is named as a salt.

Experiments:
[1] = target: T1, HIV integrase (Human immunodeficiency virus type 1 group M subtype B, UniProt P12497, F1332H); experiment: Determination of enzyme (HIV integrase) inhibitory activity; type: biochemical; details: recombinant integrase protein (F185H), donor DNA/target DNA, absorbance at 450 nm
T1 construct: HIV integrase full length gene (J. Virol., 67, 425-437 (1993)) in which phenylalanine at codon 185 was substituted by histidine; made in house; host or cells: Escherichia coli BL21(DE3)
Procedure, shortened: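 Full-length HIV integrase bearing F185H mutation, E. coli-expressed and purified, preincubated with compound on plate-bound biotinylated donor DNA for 60 min at 37 °C; digoxigenin-labelled target DNA then added for 10 min. Strand transfer detected by peroxidase anti-digoxigenin ELISA at 450 nm; IC50 from inhibition versus no-compound and no-enzyme controls.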

Row | melting point [°C] | Structure (SMILES) | IC50 [1] [nM]
1 | 247 to 249 | O=C(O)c1cn(CCO)c2ccc(Cc3cccc(Cl)c3Cl)cc2c1=O | 
2 |  | CC(C)[C@@H](CO)n1cc(C(=O)O)c(=O)c2cc(Cc3cccc(Cl)c3F)c(OCC(=O)N(C)C)cc21 [Example 4-53, 6-(3-chloro-2-fluorobenzyl)-7-((dimethylaminocarbonyl)methoxy)-1-((1S)-1-(hydroxymethyl)-2-methylpropyl)-4-oxo-1,4-dihydroquinoline-3-carboxylic acid] | 5
3 |  | CC(C)[C@@H](CO)n1cc(C(=O)O)c(=O)c2cc(Cc3cccc(Cl)c3F)c(O[C@H]3CCN(C)C3)cc21 [Example 4-54, 6-(3-chloro-2-fluorobenzyl)-1-((1S)-1-(hydroxymethyl)-2-methylpropyl)-7-((3S)-1-methylpyrrolidin-3-yloxy)-4-oxo-1,4-dihydroquinoline-3-carboxylic acid trifluoroacetate] | 7.1
4 |  | CC(C)[C@@H](CO)n1cc(C(=O)O)c(=O)c2cc(Cc3cccc(Cl)c3F)c(O[C@@H]3CCN(C)C3)cc21 [Example 4-55, 6-(3-chloro-2-fluorobenzyl)-1-((1S)-1-(hydroxymethyl)-2-methylpropyl)-7-((3R)-1-methylpyrrolidin-3-yloxy)-4-oxo-1,4-dihydroquinoline-3-carboxylic acid trifluoroacetate] | 7.6
5 |  | CC(C)[C@@H](CO)n1cc(C(=O)O)c(=O)c2cc(Cc3cccc(Cl)c3F)c(OCc3ccc(C#N)cc3)cc21 [Example 4-56, 6-(3-chloro-2-fluorobenzyl)-7-(4-cyanobenzyloxy)-1-((1S)-1-(hydroxymethyl)-2-methylpropyl)-4-oxo-1,4-dihydroquinoline-3-carboxylic acid] | 5
6 |  | CC(C)[C@@H](CO)n1cc(C(=O)O)c(=O)c2cc(Cc3cccc(Cl)c3F)c(OCc3ccc(C(=O)O)cc3)cc21 [Example 4-57, 7-(4-carboxybenzyloxy)-6-(3-chloro-2-fluorobenzyl)-1-((1S)-1-(hydroxymethyl)-2-methylpropyl)-4-oxo-1,4-dihydroquinoline-3-carboxylic acid] | 3.8
7 |  | CC(C)[C@@H](CO)n1cc(C(=O)O)c(=O)c2cc(Cc3cccc(Cl)c3F)c(OCc3ccc(C(N)=O)cc3)cc21 [Example 4-58, 7-(4-(aminocarbonyl)benzyloxy)-6-(3-chloro-2-fluorobenzyl)-1-((1S)-1-(hydroxymethyl)-2-methylpropyl)-4-oxo-1,4-dihydroquinoline-3-carboxylic acid] | 4.7
8 |  | CC(C)[C@@H](CO)n1cc(C(=O)O)c(=O)c2cc(Cc3cccc(Cl)c3F)c(OCc3ccccn3)cc21 [Example 4-59, 6-(3-chloro-2-fluorobenzyl)-1-((1S)-1-(hydroxymethyl)-2-methylpropyl)-4-oxo-7-(pyridin-2-ylmethoxy)-1,4-dihydroquinoline-3-carboxylic acid] | 3.6
9 |  | CC(C)[C@@H](CO)n1cc(C(=O)O)c(=O)c2cc(Cc3cccc(Cl)c3F)c(OCc3ccncc3)cc21 [Example 4-60, 6-(3-chloro-2-fluorobenzyl)-1-((1S)-1-(hydroxymethyl)-2-methylpropyl)-4-oxo-7-(pyridin-4-ylmethoxy)-1,4-dihydroquinoline-3-carboxylic acid] | 4.3
10 |  | CC(C)[C@@H](CO)n1cc(C(=O)O)c(=O)c2cc(Cc3cccc(Cl)c3F)c(OCc3cccnc3)cc21 [Example 4-61, 6-(3-chloro-2-fluorobenzyl)-1-((1S)-1-(hydroxymethyl)-2-methylpropyl)-4-oxo-7-(pyridin-3-ylmethoxy)-1,4-dihydroquinoline-3-carboxylic acid] | 4.9
11 |  | CC(C)[C@@H](CO)n1cc(C(=O)O)c(=O)c2cc(Cc3cccc(Cl)c3F)c(OCC(F)(F)F)cc21 [Example 4-62, 6-(3-chloro-2-fluorobenzyl)-1-((1S)-1-(hydroxymethyl)-2-methylpropyl)-4-oxo-7-(2,2,2-trifluoroethyloxy)-1,4-dihydroquinoline-3-carboxylic acid] | 5.5
12 |  | CC(C)[C@@H](CO)n1cc(C(=O)O)c(=O)c2cc(Cc3cccc(Cl)c3F)c(OCc3ccc(S(N)(=O)=O)cc3)cc21 [Example 4-63, 7-(4-(aminosulfonyl)benzyloxy)-6-(3-chloro-2-fluorobenzyl)-1-((1S)-1-(hydroxymethyl)-2-methylpropyl)-4-oxo-1,4-dihydroquinoline-3-carboxylic acid] | 3.6
13 |  | CC(C)[C@@H](CO)n1cc(C(=O)O)c(=O)c2cc(Cc3cccc(Cl)c3F)c(OC3CCN(S(C)(=O)=O)CC3)cc21 [Example 4-64, 6-(3-chloro-2-fluorobenzyl)-1-((1S)-1-(hydroxymethyl)-2-methylpropyl)-7-(1-mesylpiperidin-4-yloxy)-4-oxo-1,4-dihydroquinoline-3-carboxylic acid] | 6.6
14 |  | CC(C)[C@H]1COc2cc(Cc3cccc(Cl)c3F)cc3c(=O)c(C(=O)O)cn1c23 [Example 5-1, (3S)-8-(3-chloro-2-fluorobenzyl)-3-isopropyl-6-oxo-2,3-dihydro-6H-1-oxa-3a-aza-phenalene-5-carboxylic acid] | 160
15 |  | O=C(O)c1cn2c3c(cc(Cc4cccc(Cl)c4F)cc3c1=O)OCC2CO (stereo not shown) [Example 5-2, 8-(3-chloro-2-fluorobenzyl)-3-hydroxymethyl-6-oxo-2,3-dihydro-6H-1-oxa-3a-aza-phenalene-5-carboxylic acid] | 47
16 |  | CC(C)[C@@H](CO)n1cc(C(=O)O)c(=O)c2cc(Cc3cccc(Cl)c3F)c3c(c21)OCCO3 [Example 6-1, 10-(3-chloro-2-fluorobenzyl)-5-((1S)-1-hydroxymethyl-2-methylpropyl)-8-oxo-2,3,5,8-tetrahydro-1,4-dioxa-5-aza-phenanthrene-7-carboxylic acid] | 5.9
17 |  | COc1cc2c(cc1Cc1c(F)cccc1Cl)c(=O)c(C(=O)O)cn2[C@H](CO)C(C)C [Example 7-1, 6-(2-chloro-6-fluorobenzyl)-1-((1S)-1-(hydroxymethyl)-2-methylpropyl)-7-methoxy-4-oxo-1,4-dihydroquinoline-3-carboxylic acid] | 17
18 |  | COc1cc2c(cc1Cc1cccc(Cl)c1Cl)c(=O)c(C(=O)O)cn2[C@H](CO)C(C)C [Example 7-2, 6-(2,3-dichlorobenzyl)-1-((1S)-1-(hydroxymethyl)-2-methylpropyl)-7-methoxy-4-oxo-1,4-dihydroquinoline-3-carboxylic acid] | 4.5
19 |  | CC(C)[C@@H](CO)n1cc(C(=O)O)c(=O)c2cc(Cc3cccc(Cl)c3F)c(OCCO)cc21 [Example 7-3, 6-(3-chloro-2-fluorobenzyl)-7-(2-hydroxyethoxy)-1-((1S)-1-(hydroxymethyl)-2-methylpropyl)-4-oxo-1,4-dihydroquinoline-3-carboxylic acid] | 3.5
20 |  | CC(C)[C@@H](CO)n1cc(C(=O)O)c(=O)c2cc(Cc3cccc(Cl)c3F)c(OCCCO)cc21 [Example 7-4, 6-(3-chloro-2-fluorobenzyl)-1-((1S)-1-(hydroxymethyl)-2-methylpropyl)-7-(3-hydroxypropoxy)-4-oxo-1,4-dihydroquinoline-3-carboxylic acid] | 3.6
21 |  | CC(C)[C@@H](CO)n1cc(C(=O)O)c(=O)c2cc(Cc3cccc(Cl)c3F)c(O)cc21 [Example 7-5, 6-(3-chloro-2-fluorobenzyl)-7-hydroxy-1-((1S)-1-(hydroxymethyl)-2-methylpropyl)-4-oxo-1,4-dihydroquinoline-3-carboxylic acid] | 3.2
22 |  | CC(C)(C)[C@@H](CO)n1cc(C(=O)O)c(=O)c2cc(Cc3cccc(Cl)c3F)c(N3CCOCC3)cc21 [Example 7-6, 6-(3-chloro-2-fluorobenzyl)-1-((1S)-2,2-dimethyl-1-(hydroxymethyl)propyl)-7-(morpholin-4-yl)-4-oxo-1,4-dihydroquinoline-3-carboxylic acid] | 4.3
